Test results published in US20140148443A1, “Novel Imidazolines as dual inhibitors of MDM2 and MDMX” (priority 2012, published 2014).

Columns and labels:
[1] = biological target: recombinant GST-tagged MDM2 (Homo sapiens, UniProt Q00987); assay: HTRF assay of interaction between p53 peptide and GST-tagged MDM2; conditions: inhibition of GST-MDM2 (160 ng/ml) binding to biotinylated p53-peptide
Protocol: The ability of a test compound to inhibit the interaction between p53 and MDM2 protein was measured by an HTRF (homogeneous time-resolved fluorescence) assay in which recombinant GST-tagged MDM2 binds to a peptide that resembles the MDM2-interacting region of p53 Aca-[…]-OH hereinafter p53-peptide). Binding of GST-MDM2 protein and p53-peptide (biotinylated on its N-terminal end) is registered by the FRET (fluorescence resonance energy transfer) between Europium (Eu)-labeled anti-GST antibody and streptavidin-conjugated Allophycocyanin (APC).
The test was performed in black flat-bottom 384-well plates (Costar) in a total volume of 40 uL containing: 90 nM biotinylated peptide, 160 ng/ml GST-MDM2, 20 nM streptavidin-APC (PerkinElmerWallac), 2 nM Eu-labeled anti-GST-antibody (PerkinElmerWallac), 0.02% bovine serum albumin (BSA), 1 mM dithiothreitol (DTT) and 20 mM […] (TBS) buffer as follows: add 10 uL of GST-MDM2 (640 ng/ml working solution) in reaction buffer to each well. Add 10 uL diluted compounds (1:5 dilution in reaction buffer) to each well, mix by shaking. Add 20 uL biotinylated p53 peptide (180 nM working solution) in reaction buffer to each well and mix on shaker. Incubate at 37° C. for 1 h. Add […] streptavidin-APC and Eu-anti-GST antibody mixture (6 nM Eu-anti-GST and 60 nM streptavidin-APC working solution) in TBS buffer with 0.02% BSA, shake at room temperature for 30 minutes and read using a TRF-capable plate reader at 665 and 615 nm (Victor 5, Perkin ElmerWallac). If not specified, the reagents were purchased from Sigma Chemical Co.

GST-tagged MDMX = biological target: T1, GST-tagged MDMX (Homo sapiens, UniProt O15151); assay: HTRF binding assay of GST-tagged MDMX to p53 peptide
T1 sequence (O15151 1-490): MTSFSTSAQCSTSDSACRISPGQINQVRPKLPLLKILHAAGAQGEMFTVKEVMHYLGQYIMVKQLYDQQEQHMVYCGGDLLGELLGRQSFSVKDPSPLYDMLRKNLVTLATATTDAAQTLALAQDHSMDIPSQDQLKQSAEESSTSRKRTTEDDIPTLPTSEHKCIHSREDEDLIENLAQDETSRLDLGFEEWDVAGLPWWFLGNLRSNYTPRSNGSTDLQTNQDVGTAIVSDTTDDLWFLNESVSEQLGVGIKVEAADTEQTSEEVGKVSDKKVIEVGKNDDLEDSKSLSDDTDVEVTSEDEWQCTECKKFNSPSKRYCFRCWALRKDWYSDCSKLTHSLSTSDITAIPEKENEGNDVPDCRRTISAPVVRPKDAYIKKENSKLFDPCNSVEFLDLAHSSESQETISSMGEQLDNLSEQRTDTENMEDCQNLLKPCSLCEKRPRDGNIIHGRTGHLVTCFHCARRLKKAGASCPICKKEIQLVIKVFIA

recombinant GST-tagged MDM2, sequence (Q00987 whole entry): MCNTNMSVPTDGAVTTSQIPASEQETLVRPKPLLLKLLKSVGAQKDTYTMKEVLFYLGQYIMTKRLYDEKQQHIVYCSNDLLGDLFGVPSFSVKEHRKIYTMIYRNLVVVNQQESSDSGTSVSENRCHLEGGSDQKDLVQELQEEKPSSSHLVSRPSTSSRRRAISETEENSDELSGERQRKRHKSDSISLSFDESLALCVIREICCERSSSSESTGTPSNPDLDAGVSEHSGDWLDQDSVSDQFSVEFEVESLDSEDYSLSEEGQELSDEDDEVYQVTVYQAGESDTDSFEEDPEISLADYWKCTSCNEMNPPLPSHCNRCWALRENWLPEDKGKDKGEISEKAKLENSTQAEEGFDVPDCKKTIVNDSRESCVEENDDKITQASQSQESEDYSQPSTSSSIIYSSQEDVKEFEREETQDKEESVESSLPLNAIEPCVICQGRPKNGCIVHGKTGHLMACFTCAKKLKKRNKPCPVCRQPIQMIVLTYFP

Row | Compound | IC50 [1] | IC50 (GST-tagged MDMX)
1 | CCOCCN(CCOCC)C(=O)CN1CCN(C(=O)N2C(c3cc(S(C)(=O)=O)c(Cl)cc3OCC)=N[C@@](C)(c3ccc(Cl)cc3)[C@@]2(C)c2ccc(Cl)cc2)CC1 [Example 16, 2-{4-[(4S,5R)-2-(4-Chloro-2-ethoxy-5-methanesulfonyl-phenyl)-4,5-bis-(4-chloro-phenyl)-4,5-dimethyl-4,5-dihydro-imidazole-1-carbonyl]-piperazin-1-yl}-N,N-bis-(2-ethoxy-ethyl)-acetamide] | 5 nM | 849 nM
2 | CCOc1cc(Cl)c(S(C)(=O)=O)cc1C1=N[C@@](C)(c2ccc(Cl)cc2)[C@@](C)(c2ccc(Cl)cc2)N1C(=O)N1CCN(CC(=O)N2CCOCC2)CC1 [Example 17, 2-{4-[(4S,5R)-2-(4-Chloro-2-ethoxy-5-methanesulfonyl-phenyl)-4,5-bis-(4-chloro-phenyl)-4,5-dimethyl-4,5-dihydro-imidazole-1-carbonyl]-piperazin-1-yl}-1-morpholin-4-yl-ethanone] | 5.2 nM | 1340 nM
3 | CCOc1cc(Cl)c(S(C)(=O)=O)cc1C1=N[C@@](C)(c2ccc(Cl)cc2)[C@@](C)(c2ccc(Cl)cc2)N1C(=O)N1CCN(CCS(C)(=O)=O)CC1 [Example 18, [(4S,5R)-2-(4-Chloro-2-ethoxy-5-methanesulfonyl-phenyl)-4,5-bis-(4-chloro-phenyl)-4,5-dimethyl-4,5-dihydro-imidazol-1-yl]-[4-(2-methanesulfonyl-ethyl)-piperazin-1-yl]-methanone] | 6 nM | 1430 nM
4 | CCOc1cc(Cl)c(S(C)(=O)=O)cc1C1=N[C@@](C)(c2ccc(Cl)cc2)[C@@](C)(c2ccc(Cl)cc2)N1C(=O)N1CCC2(CCNCC2)CC1 [Example 19, [(4S,5R)-2-(4-Chloro-2-ethoxy-5-methanesulfonyl-phenyl)-4,5-bis-(4-chloro-phenyl)-4,5-dimethyl-4,5-dihydro-imidazol-1-yl]-(3,9-diaza-spiro[5.5]undec-3-yl)-methanone] | 12.5 nM | 3770 nM
5 | CCOc1cc(Cl)c(S(C)(=O)=O)cc1C1=N[C@@](C)(c2ccc(Cl)cc2)[C@@](C)(c2ccc(Cl)cc2)N1C(=O)N1CCN(C2CCS(=O)(=O)C2)CC1 (stereo partly drawn) [Example 20, [(4S,5R)-2-(4-Chloro-2-ethoxy-5-methanesulfonyl-phenyl)-4,5-bis-(4-chloro-phenyl)-4,5-dimethyl-4,5-dihydro-imidazol-1-yl]-[4-(1,1-dioxo-tetrahydro-thiophen-3-yl)-piperazin-1-yl]-methanone] | 5.4 nM | 3650 nM
6 | CCOc1cc(Cl)c(S(C)(=O)=O)cc1C1=N[C@@](C)(c2ccc(Cl)cc2)[C@@](C)(c2ccc(Cl)cc2)N1C(=O)N1CCC2(CCN(CC(N)=O)CC2)CC1 [Example 21, 2-{9-[(4S,5R)-2-(4-Chloro-2-ethoxy-5-methanesulfonyl-phenyl)-4,5-bis-(4-chloro-phenyl)-4,5-dimethyl-4,5-dihydro-imidazole-1-carbonyl]-3,9-diaza-spiro[5.5]undec-3-yl}-acetamide] | 5.8 nM | 1490 nM
7 | CCOc1cc(Cl)c(S(C)(=O)=O)cc1C1=N[C@@](C)(c2ccc(Cl)cc2)[C@@](C)(c2ccc(Cl)cc2)N1C(=O)N1CCC(CCCS(C)(=O)=O)CC1 [Example 22, [(4S,5R)-2-(4-Chloro-2-ethoxy-5-methanesulfonyl-phenyl)-4,5-bis-(4-chloro-phenyl)-4,5-dimethyl-4,5-dihydro-imidazol-1-yl]-[4-(3-methanesulfonyl-propyl)-piperidin-1-yl]-methanone] | 4.6 nM | 1350 nM
8 | CCOc1cc(Cl)c(S(C)(=O)=O)cc1C1=N[C@@](C)(c2ccc(Cl)cc2)[C@@](C)(c2ccc(Cl)cc2)N1C(=O)N1CCN(CC(=O)N(CCOC(C)C)CCOC(C)C)CC1 [Example 23, 2-{4-[(4S,5R)-2-(4-Chloro-2-ethoxy-5-methanesulfonyl-phenyl)-4,5-bis-(4-chloro-phenyl)-4,5-dimethyl-4,5-dihydro-imidazole-1-carbonyl]-piperazin-1-yl}-N,N-bis-(2-isopropoxy-ethyl)-acetamide] | 5.5 nM | 1850 nM
9 | CCOc1cc(Cl)c(S(C)(=O)=O)cc1C1=N[C@@](C)(c2ccc(Cl)cc2)[C@@](C)(c2ccc(Cl)cc2)N1C(=O)N1CCC(CC(=O)N(CCOC)CCOC)CC1 [Example 24, 2-{1-[(4S,5R)-2-(4-Chloro-2-ethoxy-5-methanesulfonyl-phenyl)-4,5-bis-(4-chloro-phenyl)-4,5-dimethyl-4,5-dihydro-imidazole-1-carbonyl]-piperidin-4-yl}-N,N-bis-(2-methoxy-ethyl)-acetamide] | 7.2 nM | 1520 nM
10 | CCOCCN(CCOCC)C(=O)CC1CCN(C(=O)N2C(c3cc(S(C)(=O)=O)c(Cl)cc3OCC)=N[C@@](C)(c3ccc(Cl)cc3)[C@@]2(C)c2ccc(Cl)cc2)CC1 [Example 25, 2-{1-[(4S,5R)-2-(4-Chloro-2-ethoxy-5-methanesulfonyl-phenyl)-4,5-bis-(4-chloro-phenyl)-4,5-dimethyl-4,5-dihydro-imidazole-1-carbonyl]-piperidin-4-yl}-N,N-bis-(2-ethoxy-ethyl)-acetamide] | 4.4 nM | 1510 nM
11 | CCOc1cc(Cl)c(S(C)(=O)=O)cc1C1=N[C@@](C)(c2ccc(Cl)cc2)[C@@](C)(c2ccc(Cl)cc2)N1C(=O)N1CCN(CCS(=O)(=O)CC)CC1 [Example 26, [(4S,5R)-2-(4-Chloro-2-ethoxy-5-methanesulfonyl-phenyl)-4,5-bis-(4-chloro-phenyl)-4,5-dimethyl-4,5-dihydro-imidazol-1-yl]-[4-(2-ethanesulfonyl-ethyl)-piperazin-1-yl]-methanone] | 5.2 nM | 2010 nM
12 | CCOc1cc(Cl)c(S(C)(=O)=O)cc1C1=N[C@@](C)(c2ccc(Cl)cc2)[C@@](C)(c2ccc(Cl)cc2)N1C(=O)N1CCN(CCC(N)=O)CC1 [Example 27, 3-{4-[(4S,5R)-2-(4-Chloro-2-ethoxy-5-methanesulfonyl-phenyl)-4,5-bis-(4-chloro-phenyl)-4,5-dimethyl-4,5-dihydro-imidazole-1-carbonyl]-piperazin-1-yl}-propionamide] | 8.8 nM | 2810 nM
13 | CCOc1cc(Cl)c(S(C)(=O)=O)cc1C1=N[C@@](C)(c2ccc(Cl)cc2)[C@@](C)(c2ccc(Cl)cc2)N1C(=O)N1CCC2(CCN(CCS(=O)(=O)CC)CC2)CC1 [Example 28, [(4S,5R)-2-(4-Chloro-2-ethoxy-5-methanesulfonyl-phenyl)-4,5-bis-(4-chloro-phenyl)-4,5-dimethyl-4,5-dihydro-imidazol-1-yl]-[9-(2-ethanesulfonyl-ethyl)-3,9-diaza-spiro[5.5]undec-3-yl]-methanone] | 4.6 nM | 1490 nM
14 | CCOc1cc(Cl)c(S(C)(=O)=O)cc1C1=N[C@@](C)(c2ccc(Cl)cc2)[C@@](C)(c2ccc(Cl)cc2)N1C(=O)N1CCN(CC(=O)NC)CC1 [Example 29, 2-{4-[(4S,5R)-2-(4-Chloro-2-ethoxy-5-methanesulfonyl-phenyl)-4,5-bis-(4-chloro-phenyl)-4,5-dimethyl-4,5-dihydro-imidazole-1-carbonyl]-piperazin-1-yl}-N-methyl-acetamide] | 5 nM | 1010 nM
15 | CCOc1cc(Cl)c(S(C)(=O)=O)cc1C1=N[C@@](C)(c2ccc(Cl)cc2)[C@@](C)(c2ccc(Cl)cc2)N1C(=O)N1CCC(NC(=O)N2CCCC2)CC1 [Example 30, Pyrrolidine-1-carboxylic acid {1-[(4S,5R)-2-(4-chloro-2-ethoxy-5-methanesulfonyl-phenyl)-4,5-bis-(4-chloro-phenyl)-4,5-dimethyl-4,5-dihydro-imidazole-1-carbonyl]-piperidin-4-yl}-amide] | 12.7 nM | 3350 nM
16 | CCOc1cc(Cl)c(S(C)(=O)=O)cc1C1=N[C@@](C)(c2ccc(Cl)cc2)[C@@](C)(c2ccc(Cl)cc2)N1C(=O)N1CCC(NC(=O)NC2CCCC2)CC1 [Example 31, 1-{1-[(4S,5R)-2-(4-Chloro-2-ethoxy-5-methanesulfonyl-phenyl)-4,5-bis-(4-chloro-phenyl)-4,5-dimethyl-4,5-dihydro-imidazole-1-carbonyl]-piperidin-4-yl}-3-cyclopentyl-urea] | 5.3 nM | 1590 nM
